The text below walks through data of patent US20050234063A1, “Therapeutic agent for brain hemorrhage” (priority 2002, published 2005).

For data set [1], the system named is subarachnoid bleeding model animal. The following applies: subarachnoid bleeding model animal injected with one's own blood; Non-patent Reference 6; cited from earlier work.
Data set [2] relates to cerebral infarction models. The following applies: various cerebral infarction models; reported; cited from earlier work.
The conditions of data set [3]: disclosed in Patent Reference 1 (WO 96/10023); cited from earlier work.
Data set [4] has as its system cerebral hemorrhage model. The data set is described as follows: Neurological symptom score in collagenase-induced rat cerebral hemorrhage model. The following applies: 10 or 20 mg/kg/h; for neurological symptom score on the 2nd day after collagenase injection, versus physiological saline administration group / neurological symptom score on the 14th day after collagenase injection, versus physiological saline administration group: 24 h intravenous continuous injection started 30 min after collagenase, Steel test. It counts as in vivo. The protocol:
A cerebral hemorrhage model was prepared by the following procedure by adding a partial modification to the method of Rosenberg et al. (Stroke, 21, 801-807, 1990). Each of male Sprague-Dawley rats (240 to 330 g in body weight, Charles River Japan) was subjected to continuous anesthesia with 1% halothane under spontaneous respiration and fixed on a stereotaxic instrument. The skull was exposed by carrying out median skin incision of the head of the animal, and a small bone window was opened on the skull using a dental drill (C730, MINIMO) at a position of 0.2 mm in the front side (A: +0.2 mm) and 3.0 mm in the left side (L: +3.0 mm) based on dBregma in accordance with the Paxinos's brain pictorial book (Paxinos G and Watson C, The rat brain in the stereotaxic coordinates (1986) Academic Press, New Yolk). An administration needle of 30G was inserted to a depth of 6.0 mm (H: −6.0 mm) from the skull and then pulled out 0.3 mm to ensure an administration space (central part of the striatum). A solution of collagenase (10 units/ml, type IV, Lot 99H8641, Sigma) was injected at a flow rate of 0.2 μl/min for 7 minutes (1.4 μl) using a micro-syringe pump (Neuroscience Syringe Pump 100, Muromachi). The administration needle was slowly pulled out after completion of the injection, scalp suture was carried out, and then the animal was revived by warming up under an incandescent lamp. It has been reported that a cerebral hemorrhage locally limited to the striatum is generated 0.5 to 4 hours after injection of collagenase in this rat cerebral hemorrhage model (Stroke, 27, 2312-2320, 1996).
As the administration of medicament, zonampanel monohydrate (hereinafter, compound a) was used. After 30 minutes of the collagenase injection, intravenous injection of zonampanel was started via a canula indwelled in the common jugular vein. The compound a was dissolved in physiological saline at a concentration of 10 mg/5 ml or 20 mg/5 ml and then subjected to 24 hours of intravenous continuous injection under shading at a dose of 10 mg/5 ml/kg/h (compound a (10 mg/kg) administration group) or 20 mg/5 ml/kg/h (compound a (20 mg/kg) administration group). In the control group, physiological saline was subjected to 24 hours of intravenous continuous injection at a dose of 5 ml/kg/h (physiological saline administration group). The number of animals in respective groups was 6 animals in the compound a (10 mg/kg) administration group, 9 animals in the compound a (20 mg/kg) administration group, and 9 animals in the physiological saline administration group.
Staring after 30 minutes of the injection of collagenase into the striatum, the compound a was subjected to 24 hours of intravenous continuous injection at a dose of 10 mg/kg/h (compound a (10 mg/kg) administration group, 6 cases) or 20 mg/kg/h (compound a (20 mg/kg) administration group, 9 cases), and a neurological symptom of each animal was observed before the injection of collagenase and on the 2nd and 14th days after the collagenase injection. Physiological saline was administered to the control group (physiological saline administration group, 9 cases).
Scoring criteria of the neurological symptom are as follows. This was scored by 5 steps (O to 4) based on the behavior of each animal when the waist part of the animal was pushed toward the front side.
Score 1: Turning right is predominant but sometimes turns left.
Score 0: Normal, no left-right turning inclination. […]

Another data set has as its system AMPA receptor. To be noted: disclosed in Patent Reference 1 (WO 96/10023); cited from earlier work.
For data set [5], the system named is ischemic reperfusion model. The following applies: Non-patent Reference 5; cited from earlier work.

The structures appear in SMILES notation.

`CC1=NN=C(c2ccc(N)cc2)c2cc3c(cc2C1)OCO3` [GYK152466]: the “effect on vascular permeability acceleration” value in data set [1] was “inhibits vascular permeability acceleration”.

Turning to `O.O=C(O)Cn1c(=O)c(=O)[nH]c2cc([N+](=O)[O-])c(-n3ccnc3)cc21` [compound a, [7-(1H-imidazol-1-yl)-6-nitro-2,3-dioxo-3,4-dihydroquinoxalin-1(2H)-yl]acetic acid monohydrate], in data set [2], the “effect on progress of infarction foci” value was “inhibit progress of infarction foci”. Besides, the water-solubility result in data set [3] was “high”. The “neurological symptom score on the 2nd day after collagenase injection, versus physiological saline administration group” value in data set [4] (listed as zonampanel, monohydrate) is listed as “does not show significant effect”; in data set [4] (monohydrate), “almost the same”. The “neurological symptom score on the 14th day after collagenase injection, versus physiological saline administration group” value in data set [4] (p<0.05, listed as zonampanel, monohydrate) is on record as “significant improving effect”; in data set [4] (p<0.05, monohydrate), “significantly light”. In data set [4] (24 h intravenous continuous injection, days 0 to 14 (FIG. 1)), the “change of neurological symptom score as the days elapsed, in comparison with the control” value is listed as “improving tendency”. In the data set with AMPA receptor, the “AMPA receptor binding activity” value is “potent and selective”. Also, the “time after drug administration from which the neurological symptoms improving action is observed” value in data set [5] is reported as not below 24 hours.
